Key:
[1] = Inhibition of SPD uptake by polyamine transporter of MDA-MB-231 breast carcinoma cells; format: cell-based
[2] = system: MDA-MB-231; experiment: Effective concentration of compound with DFMO tested in vitro for ability to inhibit polyamine transport and growth of MDA-MB-231 breast carcinoma cell line; format: functional, cell-based; settings: Homo sapiens
[3] = system: MDA-MB-231; experiment: Michaelis-Menten constant of compound was determined at MDA-MB-231 cell line mediated by polyamine transporter; format: cell-based; settings: Homo sapiens
[4] = system: MDA-MB-231; experiment: Effective concentration of compound without DFMO tested in vitro for ability to inhibit polyamine transport and growth of MDA-MB-231 breast carcinoma cell line; Cytotoxic; format: functional, cell-based; settings: Homo sapiens
[5] = system: MDA-MB-231; experiment: Effective concentration of compound with DFMO tested in vitro for ability to inhibit polyamine transport and growth of MDA-MB-231 breast carcinoma cell line; Cytotoxic; format: functional, cell-based; settings: Homo sapiens

SMILES | EC50 [2] [µM] | Ki [1] [µM] | Km [3] [µM] | EC50 [4] [µM] | EC50 [5] [µM]
NCCCCN | – | – | 1.28 | – | –
NCCCNCCCCNCCCNS(=O)(=O)c1ccc2cc(S(=O)(=O)NCCCNCCCCNCCCN)ccc2c1 | 230 | 0.06 | – | – | –
NCCCNCCCCNCCCNC(=O)CCCCCCCCCCC(=O)NCCCNCCCCNCCCN | 8 | 0.03 | – | 53 | –
NCCCNCCCCNCCCN | – | – | 2 | – | –
NCCCCNCCCN | – | – | 0.11 | – | –
CCCCCCC(=O)NCCCNCCCCNCCCN | – | 0.28 | – | – | 63
CC(=O)NCCCNCCCCNCCCN | > 1000 | 0.18 | – | – | –

Further lines, with some results ahead:

EC50 [2] [µM] | SMILES | Ki [1] [µM] | Km [3] [µM] | EC50 [4] [µM] | EC50 [5] [µM]
1.6 | NCCCNCCCCNCCCNC(=O)CCCC(=O)NCCCNCCCCNCCCN | 0.06 | – | – | –
6 | NCCCNCCCCNCCCNC(=O)CCCCCC(=O)NCCCNCCCCNCCCN | 0.04 | – | – | –
3.7 | NCCCNCCCCNCCCNC(=O)CCCCCCC(=O)NCCCNCCCCNCCCN | 0.06 | – | – | –
9 | NCCCNCCCCNCCCNC(=O)CCCCCCCCC(=O)NCCCNCCCCNCCCN | 0.08 | – | 240 | –
> 300 | NCCCNCCCCNCCCNC(=O)CC12CC3CC(C1)CC(CC(=O)NCCCNCCCCNCCCN)(C3)C2 | 0.06 | – | – | –
2.2 | NCCCNCCCCNCCCNC(=O)CCCCC(=O)NCCCNCCCCNCCCN | 0.07 | – | – | –
3 | NCCCNCCCCNCCCNC(=O)CCCCCCCC(=O)NCCCNCCCCNCCCN | 0.07 | – | – | –
2 | NCCCNCCCCNCCCNC(=O)CCC(=O)NCCCNCCCCNCCCN | 0.03 | – | – | –
